Assay results reported in PubChem BioAssay (NCI).
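Briefly, cells in 96-well plates were exposed to five compound concentrations for 48 h, and endpoints were estimated by linear interpolation. Abbreviation: GI50, concentration required for 50% inhibition of growth. TGI is the concentration that stops growth completely.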

Assays:
Experiment in all cases: NCI tumour cell line growth inhibition, 48 h
HOP-62 NSCLC = test system: HOP-62 NSCLC
SF-295 CNS = test system: SF-295 CNS
RXF 393 renal = test system: RXF 393 renal
NCI/ADR-RES ovarian = test system: NCI/ADR-RES ovarian
HOP-92 NSCLC = test system: HOP-92 NSCLC
OVCAR-5 ovarian = test system: OVCAR-5 ovarian
A498 renal = test system: A498 renal
MCF7 breast = test system: MCF7 breast
MDA-MB-435 = test system: MDA-MB-435
LOX IMVI melanoma = test system: LOX IMVI melanoma

Compound | TGI (HOP-62 NSCLC) | TGI (SF-295 CNS) | TGI (RXF 393 renal) | TGI (NCI/ADR-RES ovarian) | TGI (HOP-92 NSCLC) | TGI (OVCAR-5 ovarian) | TGI (A498 renal) | TGI (MCF7 breast) | TGI (MDA-MB-435) | TGI (LOX IMVI melanoma) | GI50 (HOP-62 NSCLC) | GI50 (SF-295 CNS) | GI50 (RXF 393 renal) | GI50 (NCI/ADR-RES ovarian) | GI50 (HOP-92 NSCLC) | GI50 (OVCAR-5 ovarian) | GI50 (A498 renal) | GI50 (MCF7 breast) | GI50 (MDA-MB-435) | GI50 (LOX IMVI melanoma)
N#CC1(C2SCCS2=O)C2=C(C(=O)c3ccccc3C2=O)N2CCCC21 (centres undefined) | 14.9 µM | 7.82 µM | 10.9 µM | 10.2 µM | 11.9 µM | 9.39 µM | 13 µM | 3.73 µM | 1.3 µM | 6.53 µM | – | – | – | – | – | – | – | – | – | –
Cc1n(Cc2ccc3ccccc3c2)cc[n+]1Cc1ccc2ccccc2c1 | 8.35 µM | 7.21 µM | 3.4 µM | > 100 µM | 3.64 µM | 5.81 µM | 4.61 µM | 3.33 µM | 2.38 µM | 2.2 µM | 1.6 µM | 1.83 µM | 0.857 µM | 41.3 µM | 0.673 µM | 1.5 µM | 0.47 µM | 1.1 µM | 0.544 µM | 0.951 µM
O=C(O)Cc1c(O)ccc2ccccc12 | > 100 µM | > 100 µM | > 100 µM | > 100 µM | > 100 µM | > 100 µM | > 100 µM | > 100 µM | > 100 µM | > 100 µM | – | – | – | – | – | – | – | – | – | –
O=C1/C(=C\c2cccn2Cc2ccccc2)c2ccccc2N1c1c(Cl)cccc1Cl | > 100 µM | > 100 µM | > 100 µM | > 100 µM | 28.8 µM | > 100 µM | > 100 µM | > 100 µM | > 100 µM | > 100 µM | > 100 µM | > 100 µM | > 100 µM | > 100 µM | 1.52 µM | 4.37 µM | > 100 µM | 0.0898 µM | > 100 µM | > 100 µM
Cc1sc2nc(NCCc3c[nH]c4ccc(Cl)cc34)[nH]c(=O)c2c1C | 10.4 µM | 13.4 µM | 3.41 µM | 15.6 µM | 5.64 µM | 11.7 µM | 4.15 µM | 7 µM | 11.3 µM | 3.68 µM | 2.52 µM | 3.53 µM | 1.79 µM | 3.07 µM | 2.06 µM | 2.97 µM | 1.8 µM | 2.47 µM | 3.31 µM | 1.87 µM
O=C(O)c1c(-c2nccc3ccccc23)[nH]c(-c2ccccc2)c1S(=O)(=O)O | > 100 µM | > 100 µM | > 100 µM | > 100 µM | > 100 µM | > 100 µM | > 100 µM | > 100 µM | > 100 µM | > 100 µM | – | – | – | – | – | – | – | – | – | –
COc1ccc(/C=c2/sc3n(c2=O)C(c2ccc(OC)c(OC)c2)C2=C(N=3)c3cc(F)ccc3OC2)cc1 (centres undefined) | > 100 µM | 54.1 µM | > 100 µM | 87.4 µM | > 65 µM | > 100 µM | > 80.9 µM | > 100 µM | 41.1 µM | 50.7 µM | 37.7 µM | 15.7 µM | > 100 µM | 18.7 µM | 14.3 µM | 52.8 µM | 45.6 µM | 23.6 µM | 14.1 µM | 23 µM
O=C(O)c1cc(O)c2c(c1)C(C1c3cc(C(=O)O)cc(O)c3C(=O)c3c(OC4OC(CO)C(O)C(O)C4O)cccc31)c1cccc(OC3OC(CO)C(O)C(O)C3O)c1C2=O (centres undefined) | > 100 µM | > 100 µM | > 100 µM | > 100 µM | > 100 µM | > 100 µM | > 100 µM | > 100 µM | > 100 µM | > 100 µM | > 100 µM | > 100 µM | > 100 µM | > 100 µM | > 100 µM | > 100 µM | > 100 µM | > 100 µM | > 100 µM | > 100 µM
O=C(CN(C1CCCCC1)C1CCCCC1)Nc1ccc(S(=O)(=O)c2ccc(NC(=O)CN(C3CCCCC3)C3CCCCC3)cc2)cc1 | 3.56 µM | 2.96 µM | 2.31 µM | 6.31 µM | 2.93 µM | 2.52 µM | 27.9 µM | 1.62 µM | 2.35 µM | 0.845 µM | 1.2 µM | 1.5 µM | 0.817 µM | 0.89 µM | 1.39 µM | 1.13 µM | 11.4 µM | 0.299 µM | 0.873 µM | 0.239 µM
O=c1[nH]c2cc(Cl)ccc2n1C1CCN(CCCC(c2ccc(F)cc2)c2ccc(F)cc2)CC1 | 3.05 µM | – | 2.02 µM | 3.61 µM | 2.41 µM | 3.43 µM | 2.74 µM | 2.84 µM | 2.63 µM | 2.89 µM | 1.55 µM | – | 0.48 µM | 1.74 µM | 1.01 µM | 1.74 µM | 1.34 µM | 1.35 µM | 1.32 µM | 1.56 µM
Cc1c[n+](Cc2ccc3ccccc3c2)cn1Cc1ccc2ccccc2c1 | 3.8 µM | 5.56 µM | 3.47 µM | > 100 µM | 2.02 µM | 3.95 µM | 4.29 µM | 3.5 µM | 3.03 µM | 2.7 µM | 1.61 µM | 1.95 µM | 1.62 µM | > 100 µM | 0.448 µM | 1.81 µM | 0.954 µM | 1.67 µM | 1.28 µM | 1.34 µM
Nc1nc(Br)nc2c1ncn2C1CC(O)C(CO)O1 (centres undefined) | > 100 µM | > 76.4 µM | > 100 µM | > 100 µM | > 100 µM | > 100 µM | 99.4 µM | > 100 µM | > 100 µM | > 100 µM | 4.68 µM | 18.4 µM | 32.8 µM | 0.384 µM | 2.79 µM | 90.8 µM | 21 µM | 1.26 µM | 11.6 µM | 29.8 µM
Nc1nc(Nc2ccccc2)c2ncn(Cc3cc4c(cc3Br)OCO4)c2n1 | 7.65 µM | 7.27 µM | 8.65 µM | > 37.5 µM | 20.7 µM | > 80.3 µM | 29.7 µM | 31.9 µM | 0.129 µM | > 100 µM | 0.0675 µM | 0.037 µM | 0.0602 µM | 0.0565 µM | 0.0651 µM | 0.282 µM | 0.0546 µM | < 0.01 µM | 0.0301 µM | 0.0563 µM
CCOC(=O)N1CCN(C(=O)c2ccc(C(F)(F)F)nc2Nc2cc(Cl)ccc2C)CC1 | > 100 µM | 65.3 µM | 65.2 µM | > 100 µM | > 100 µM | > 100 µM | 56.4 µM | 43 µM | 26.7 µM | > 100 µM | 25.8 µM | 14.6 µM | 14 µM | 15.4 µM | 10.2 µM | 39.4 µM | 21.1 µM | 14.7 µM | 5.86 µM | 19.7 µM
Cc1ccc(Nc2nc(N)c(C(=O)c3ccc(C#N)cc3)s2)cc1 | > 70.3 µM | 37.7 µM | 7.44 µM | 36.3 µM | 32.4 µM | > 100 µM | 23.1 µM | > 100 µM | – | > 100 µM | 0.503 µM | 0.328 µM | 0.398 µM | 0.196 µM | 0.478 µM | 2.98 µM | 0.37 µM | 0.369 µM | 0.0779 µM | 0.522 µM
COc1ccc(-c2cc(-c3cccn3C)c(C#N)c(N)n2)cc1OC | – | > 100 µM | > 100 µM | > 100 µM | > 100 µM | > 100 µM | > 100 µM | > 100 µM | > 100 µM | > 100 µM | – | > 100 µM | > 100 µM | > 100 µM | 5.16 µM | > 100 µM | 82.8 µM | 94.3 µM | > 100 µM | > 100 µM
OCCCCC#Cc1ccccc1C#Cc1cccc(O)c1 | – | 41.7 µM | 13.9 µM | 47 µM | 40.7 µM | 32.1 µM | 39.4 µM | > 100 µM | 32.8 µM | 30.9 µM | – | 21 µM | 2.3 µM | 20 µM | 19.8 µM | 16.9 µM | 18.5 µM | 35.7 µM | 16.1 µM | 16.7 µM
COc1cc2cn3c4ccc(O)cc4[nH]c(=O)c3c2cc1OC | 1.81 µM | – | 1.49 µM | 2.01 µM | 7.72 µM | 2.36 µM | 10.8 µM | 1.62 µM | 0.0192 µM | 1.44 µM | 0.0338 µM | – | < 0.0122 µM | 0.0883 µM | 2.14 µM | 0.269 µM | 0.02 µM | 0.0341 µM | < 0.01 µM | 0.0131 µM
COC(=O)[C@@H](NC(=O)[C@@H](OC)[C@@H]1Cc2cc3cc(OC4CC(OC5CC(O)C(O)C(C)O5)C(O)C(C)O4)c(C)c(O)c3c(O)c2C(=O)[C@H]1OC1CC(OC2CC(OC3CC(C)(O)C(O)C(C)O3)C(O)C(C)O2)C(O)C(C)O1)C(C)C (some centres undefined) | > 32.5 µM | 2.11 µM | 0.427 µM | > 32.5 µM | 1.13 µM | 10.8 µM | 0.333 µM | > 32.5 µM | > 32.5 µM | – | 0.0824 µM | 0.0934 µM | 0.0822 µM | 23.7 µM | 0.101 µM | 0.265 µM | 0.0869 µM | 0.0538 µM | 0.13 µM | –
